This note sets out measurements from patent US20100120730A1, “6-BENZYL-2,3,4,7-TETRAHYDRO-INDOLO [2,3-C] QUINOLINE COMPOUNDS USEFUL AS PDE5 INHIBITORS” (NYCOMED GmbH, priority 2007, published 2010).

Structures can show the parent of a compound that is named as a salt.

The first series deals with T1, human PDE5 (Homo sapiens, UniProt O76074).
T1 construct: from tissue; host or cells: human platelets from fresh donor blood (10,000 g supernatant of sonified platelets)
Description: Inhibition of PDE5 activity (modified SPA test, human platelet lysate). The class given is biochemical. Particulars: PDE5-containing human platelet lysate, 0.5 μM cGMP substrate, 37° C. The method, then:
As a source for human PDE5, platelets were used. For that purpose, 150 ml fresh blood from human donors anticoagulated with citrate [final concentration 0.3% (w/v)] was centrifuged at 200 g for 10 min to obtain the so-called platelet-rich-plasma (PRP) as a supernatant. 1/10 volume of ACD solution (85 mM Na3-citrate, 111 mM D-glucose, 71 mM citric acid, pH 4.4) was added to 9/10 volume of PRP. After centrifugation (1,400 g, 10 min) the cell pellet was resuspended in 3 ml homogenization buffer (NaCl 140 mM, KCl 3.8 mM, EGTA 1 mM, MgCl2 1 mM, Tris-HCl 20 mM, beta-mercaptoethanol 1 mM, pH 8.2) plus protease-inhibitor mix giving rise to the final concentrations of 0.5 mM Pefablock (Roche), 10 μM Leupeptin, 5 μM Trypsininhibitor, 2 mM Benzamidin and 10 μM Pepstatin A. The suspension was sonified and thereafter centrifuged for 15 min at 10,000 g. The resulting supernatant (platelet lysate) was used for enzymatic testings.
PDE5A1 activity is inhibited by the compounds of the invention in a modified SPA (scintillation proximity assay) test, supplied by Amersham Biosciences (see procedural instructions “phosphodiesterase [3H]cAMP SPA enzyme assay, code TRKQ 7090”), carried out in 96-well microtitre plates (MTP's). The test volume is 100 μl and contains 20 mM Tris buffer (pH 7.4), 0.1 mg of BSA (bovine serum albumin)/ml, 5 mM Mg^2+, 1 μM motapizone, 10 nM PDE2 inhibitor BAY-60-7550, 0.5 μM cGMP (including about 50,000 cpm of [3H]cGMP as a tracer), 1 μl of the respective compound dilution in dimethylsulfoxide (DMSO) and sufficient PDE5-containing platelet lysat (10,000×g supernatant, see above) to ensure that 10-20 wt % of the cGMP is converted under the said experimental conditions. […] After a preincubation of 5 min at 37° C., the reaction was started by adding the substrate (cGMP) and the assay was incubated for a further 15 min; after that, it was stopped by adding SPA beads (50 μl). In accordance with the manufacturer's instructions, the SPA beads had previously been resuspended in water, but were then diluted 1:3 (v/v) in water; the diluted solution also contains 3 mM 8-methoxymethyl-3-isobutyl-1-methylxanthine (IBMX) to ensure a complete PDE activity stop. After the beads have been sedimented (>30 min), the MTP's are analyzed in commercially available luminescence detection devices. The corresponding IC50 values of the compounds for the inhibition of PDE activity are determined from the concentration-effect curves by means of non-linear regression.
As usually defined, the IC50 is the concentration at which inhibition is half-maximal. Compound `Nc1cccc(Cc2nc3c(c4c2[nH]c2ccccc24)C(=O)CCC3)c1` [Example 43, 6-(3-Amino-benzyl)-2,3,4,7-tetrahydro-indolo[2,3-c]quinolin-1-one] gave an IC50 of 11.5 nM. Same read-out and setting: as for `O=C1CCCc2nc(Cc3cccc([N+](=O)[O-])c3)c3[nH]c4ccccc4c3c21` [Example 19, 6-(3-Nitro-benzyl)-2,3,4,7-tetrahydro-indolo[2,3-c]quinolin-1-one], the figure is 288 nM; as for `CCC(=O)Nc1ccc(Cc2nc3c(c4c2[nH]c2ccccc24)C(=O)CC(C)(C)C3)cc1` [Example 45, N-[4-(3,3-Dimethyl-1-oxo-2,3,4,7-tetrahydro-1H-indolo[2,3-c]quinolin-6-ylmethyl)-phenyl]-propionamide], 34.7 nM; as for `COc1ccc(Cc2nc3c(c4c2[nH]c2ccccc24)C(=O)CC(C)(C)C3)cc1` [Example 1, 6-(4-Methoxy-benzyl)-3,3-dimethyl-2,3,4,7-tetrahydro-indolo[2,3-c]quinolin-1-one], 3.02 nM. On the same count and under the same terms, as for `CC1(C)CC(=O)c2c(nc(Cc3ccc(O)cc3)c3[nH]c4ccccc4c23)C1` [Example 39, 6-(4-Hydroxy-benzyl)-3,3-dimethyl-2,3,4,7-tetrahydro-indolo[2,3-c]quinolin-1-one], the figure is 1.91 nM. Compound `CC1(C)CC(=O)c2c(nc(Cc3cccc([N+](=O)[O-])c3)c3[nH]c4ccccc4c23)C1` [Example 13, 3,3-Dimethyl-6-(3-nitro-benzyl)-2,3,4,7-tetrahydro-indolo[2,3-c]quinolin-1-one] showed an IC50 of 135 nM.

In the case of `Brc1ccc(Cc2nc3c(c4c2[nH]c2ccccc24)CCCC3)cc1` [Example 9, 6-(4-Bromo-benzyl)-2,3,4,7-tetrahydro-1H-indolo[2,3-c]quinoline, HCl salt], the IC50 was 22.9 nM. Same read-out and setting: as for `CC1(C)CC(=O)c2c(nc(Cc3ccc(Br)cc3)c3[nH]c4ccccc4c23)C1` [Example 5, 6-(4-Bromo-benzyl)-3,3-dimethyl-2,3,4,7-tetrahydro-indolo[2,3-c]quinolin-1-one, HCl salt], the figure is 10.7 nM. The same measure, in the same setting: in the case of `Nc1cccc(Cc2nc3c(c4c2[nH]c2ccccc24)C(O)CCC3)c1` (centres unmarked) [Example 72, 6-(3-Amino-benzyl)-2,3,4,7-tetrahydro-1H-indolo[2,3-c]quinolin-1-ol] it was 49 nM; in that of `CC1(C)CC(=O)c2c(nc(Cc3ccc4c(c3)OCO4)c3[nH]c4ccccc4c23)C1` [Example 7, 6-Benzo[1,3]dioxol-5-ylmethyl-3,3-dimethyl-2,3,4,7-tetrahydro-indolo[2,3-c]quinolin-1-one, HCl salt], 3.89 nM; in that of `CC1(C)Cc2nc(Cc3ccc4c(c3)OCO4)c3[nH]c4ccccc4c3c2C(O)C1` (centres unmarked) [Example 59, 6-Benzo[1,3]dioxol-5-ylmethyl-3,3-dimethyl-2,3,4,7-tetrahydro-1H-indolo[2,3-c]quinolin-1-ol], 2.69 nM. On to `COc1ccc(Cc2nc3c(c4c2[nH]c2ccccc24)C(O)CC(C)(C)C3)c(F)c1` (centres unmarked) [Example 65, 6-(2-Fluoro-4-methoxy-benzyl)-3,3-dimethyl-2,3,4,7-tetrahydro-1H-indolo[2,3-c]quinolin-1-ol], for which the IC50 is 1.12 nM.

In turn, `COc1cccc(Cc2nc3c(c4c2[nH]c2ccccc24)C(=O)CC(C)(C)C3)c1` [Example 10, 6-(3-Methoxy-benzyl)-3,3-dimethyl-2,3,4,7-tetrahydro-indolo[2,3-c]quinolin-1-one] had an IC50 of 79.4 nM.

For `COc1ccc(Cc2nc3c(c4c2[nH]c2ccccc24)C(O)CC(C)(C)C3)cc1F` (centres unmarked) [Example 68, 6-(3-Fluoro-4-methoxy-benzyl)-3,3-dimethyl-2,3,4,7-tetrahydro-1H-indolo[2,3-c]quinolin-1-ol], it took 1.58 nM to reach half-maximal inhibition (IC50).

`COc1ccc(Cc2nc3c(c4c2[nH]c2ccccc24)CCCC3)cc1` [Example 6, 6-(4-Methoxy-benzyl)-2,3,4,7-tetrahydro-1H-indolo[2,3-c]quinoline, HCl salt] gave an IC50 of 12.6 nM. `CC(=O)Nc1ccc(Cc2nc3c(c4c2[nH]c2ccccc24)C(=O)CCC3)cc1` [Example 46, N-[4-(1-Oxo-2,3,4,7-tetrahydro-1H-indolo[2,3-c]quinolin-6-ylmethyl)-phenyl]-acetamide] gave an IC50 of 67.6 nM. Turning to `CC1(C)CC(=O)c2c(nc(Cc3ccc(NC(N)=O)cc3)c3[nH]c4ccccc4c23)C1` [Example 75, [4-(3,3-Dimethyl-1-oxo-2,3,4,7-tetrahydro-1H-indolo[2,3-c]quinolin-6-ylmethyl)-phenyl]-urea], the IC50 is 10.5 nM. Turning to `CC1(C)CC(=O)c2c(nc(Cc3ccc([N+](=O)[O-])cc3)c3[nH]c4ccccc4c23)C1` [Example 8, 3,3-Dimethyl-6-(4-nitro-benzyl)-2,3,4,7-tetrahydro-indolo[2,3-c]quinolin-1-one, HCl salt], it took 81.3 nM to reach half-maximal inhibition (IC50). The same measure, in the same setting: as for `Nc1ccc(Cc2nc3c(c4c2[nH]c2ccccc24)C(=O)CCC3)cc1` [Example 42, 6-(4-Amino-benzyl)-2,3,4,7-tetrahydro-indolo[2,3-c]quinolin-1-one], the figure is 25.7 nM.

Tested on in another series: not given
Experiment: not given
Details: not given
As usually defined, the melting point is the temperature, or range, at which the solid turns liquid. As for `CC1(C)CC(=O)c2c(nc(Cc3ccc([N+](=O)[O-])cc3)c3[nH]c4ccccc4c23)C1` [Example 16, 3,3-Dimethyl-6-(4-nitro-benzyl)-2,3,4,7-tetrahydro-indolo[2,3-c]quinolin-1-one], the melting point fell in the range of 164 to 166 °C. On the same count and under the same terms, in the case of `CC1(C)CC(=O)c2c(nc(Cc3ccc(Br)cc3)c3[nH]c4ccccc4c23)C1` (as salt: HCl) [Example 5, 6-(4-Bromo-benzyl)-3,3-dimethyl-2,3,4,7-tetrahydro-indolo[2,3-c]quinolin-1-one, HCl salt] it was 244 to 245 °C; in that of `CC1(C)CC(=O)c2c(nc(Cc3ccc([N+](=O)[O-])cc3)c3[nH]c4ccccc4c23)C1` (as salt: HCl) [Example 8, 3,3-Dimethyl-6-(4-nitro-benzyl)-2,3,4,7-tetrahydro-indolo[2,3-c]quinolin-1-one, HCl salt], 214 to 215 °C; in that of `COc1ccc(Cc2nc3c(c4c2[nH]c2ccccc24)[C@@H](OC(=O)[C@@H]2CCC(=O)N2)CC(C)(C)C3)cc1F` [Example 98, (S)-6-(3-Fluoro-4-methoxy-benzyl)-3,3-dimethyl-2,3,4,7-tetrahydro-1H-indolo[2,3-c]quinolin-1-ol pyroglutamate], 185 to 187 °C. `COc1c(F)cc(Cc2nc3c(c4c2[nH]c2ccccc24)[C@H](O)CC(C)(C)C3)cc1F` [Example 90, (R)-6-(3,5-Difluoro-4-methoxy-benzyl)-3,3-dimethyl-2,3,4,7-tetrahydro-1H-indolo[2,3-c]quinolin-1-ol] showed a melting point of 161 to 162 °C. The same measure, in the same setting: in the case of `Brc1ccc(Cc2nc3c(c4c2[nH]c2ccccc24)CCCC3)cc1` (as salt: HCl) [Example 9, 6-(4-Bromo-benzyl)-2,3,4,7-tetrahydro-1H-indolo[2,3-c]quinoline, HCl salt] it was 311 to 312 °C; in that of `CC1(C)Cc2nc(Cc3ccc(O)c(F)c3)c3[nH]c4ccccc4c3c2[C@H](O)C1` [Example 87, (R)-6-(3-Fluoro-4-hydroxy-benzyl)-3,3-dimethyl-2,3,4,7-tetrahydro-1H-indolo[2,3-c]quinolin-1-ol], 232 to 234 °C.
